In data set [1] the test system is hairless mice. In words: TEWL (water permeability) 4 hours after application to acetone-treated skin. The class given is in vivo. Particulars: for stratum corneum water permeability (TEWL), increase vs vehicle in words: statistical significance vs vehicle, concentrations and skin treatment as in Tables 2-7.
Data set [2] has as its system intact pig skin. In words: TEWL of intact pig skin under occlusion (Hilltop chamber), testosterone formulations. The class given is in vivo. Conditions: for barrier integrity / barrier permeability (TEWL) vs occlusion and TS controls, in words: Tables 9-11; for 6 h Post TEWL (x baseline): 6 h after removal of formulation.
A short description of data set [3]: Transdermal LHRH delivery: plasma level by radioimmunoassay, ratio to vehicle. Conditions: ratio of LHRH plasma levels (RIA) after tested delivery compound(s) to vehicle; acid lipase vs its vehicle MES.
The conditions of data set [4]: topical; literature (J. Clin. Invest. 88, 1991); cited from earlier work.
In data set [5] the test system is hairless mice. Put plainly: Epidermal barrier disruption: marker (propylene glycol, cyclophenol) profile in stratum corneum by IR and tape-stripping. The class given is in vivo. As to the method:
To determine the epidermal barrier disruption by application of fluindostatin, an animal testing was conducted in the manner as follows: Hairless mice (two animals, B and C) were topically pretreated with fluindostatin for 7 days. In a control group, animals (two) were only treated with a vehicle. […] The parameters for the vehicle in all of the experiments herein are as follows: […] N=14. After treatment, the skin surface was cleaned and stratum corneum allowed to recover to its normal state of hydration for 2 hours. An IR spectrum of the hydrophilic marker compound, propylene glycol, was recorded, and a single tape-stripping was conducted at the treated skin site. Another spectrum was recorded followed by the removal of a. second tape strip. The same sequence was repeated 10 times. FIGS. 4A, 4B show the test results. […] In essentially the same manner, cyclophenol (CP) was used as a.lipophilic marker. Tape-stripping was repeated 7 times after application of fluindostatin.

Data set [6] has as its system hairless mouse. In words: TEWL recovery after oleic acid treatment. In kind it is in vivo. Conditions: 30 μl of 1.5% fluindostatin or 0.25% TOFA in propylene glycol/ethanol 7:3, two hours after 5% oleic acid (FIG. 6A, 6B). As to the method:
A female hairless mouse, aged 8 weeks, was treated with oleic acid. After oleic acid treatment, fluindostatin and/or 5-tetradecyloxy-2-furancarboxylic acid (TOFA) was applied to the animal.
TEWL (trans-epidermal water loss) was measured before and after treatment at convenient time intervals when the animal was alert. An Evaporimeter (ServoMed) was used.
First, TEWL of the left (LHS) and right (RHS) dorsal sides was measured. Then, the animal was anesthetized by 0.25 ml chloral hydrate (CH) IP injection. At t=0, an aliquot of 30 μl oleic acid solution (5% in propylene glycol/ethanol 7:3 (v/v)) was applied directly to both sides of the animal (˜1.5×3 cm) using a Hamilton syringe. […] TEWL was measured thereafter every 2 or 3 hours.

[7] abbreviates: lidocaine, solitary enhancer Conc 0.5 %, acetone-treated skin.
Setting [8] is: statistical significance vs vehicle, concentrations and skin treatment as in Tables 2-7.
Setting [9] is: solitary agent, Conc 0.5 %, acetone-treated skin.
The mark [10] stands for this setting: solitary agent, Conc 1.0 %, acetone-treated skin.

Structures can show the parent of a compound that is named as a salt. Where two headings read alike, the source gives them in different places.

For Bromophenacylbromide, the “water permeability (TEWL), increase vs vehicle in words” value in data set [1] (solitary agent on intact skin) is “but not water permeability”. The “TEWL (T = 4 hours)” value in data set [1] (solitary agent, Conc 0.15 %, intact skin) came to 98 ± 47; in data set [1] (solitary agent, Conc 0.2 %, acetone-treated (prepermeabilized) skin), 690 ± 177. Moreover, in data set [1], the “stratum corneum water permeability (TEWL), increase vs vehicle in words” value was “very significant increases of both lidocaine delivery and water permeability”.
Consider `CCN(CC)CCCC(C)Nc1ccnc2cc(Cl)ccc12` (stereo not shown) [CQ, Chloroquine], for which the “barrier integrity / barrier permeability (TEWL) vs occlusion and TS controls, in words” value in data set [2] (intact pig skin) is given as “increase barrier permeability to TS to a degree significantly superior to that provided by either control at all time points”.
`CCCC[C@@H](C)[C@@H](OC(=O)C[C@@H](CC(=O)O)C(=O)O)[C@H](C[C@@H](C)C[C@H](O)CCCC[C@@H](O)C[C@H](O)[C@H](C)N)OC(=O)C[C@@H](CC(=O)O)C(=O)O` [fumonisin B1, Fumonisin B1]: under setting [7], the “Plasma Conc. (% dose/ml plasma)” value is reported as 0.24 ± 0.03 % dose/ml plasma and the “Total Body Conc. (%)” value came to 14.58 ± 0.73%. In addition, under setting [8], the “lidocaine delivery, increase vs vehicle in words” value (from here on “lidocaine delivery, increase”) is reported as “very significantly increased lidocaine delivery”. Besides, in data set [3], the “LHRH Delivery Ratio vs. Vehicle” value was 3.8. Also, the “TEWL (T = 4 hours)” value in data set [1] (setting [9]) is 440 ± 149.
For the compound `CCCCCCCC/C=C\CCCCCCCC(=O)O[C@H]1CC[C@@]2(C)C(=CC[C@H]3[C@@H]4CC[C@H]([C@H](C)CCCC(C)C)[C@@]4(C)CC[C@@H]32)C1` [CHO, Cholesterol Oleate], the “24 h TEWL (x baseline)” value in data set [2] (Table 9, 0.05 weight %, 24 h) was determined as 1.53 x baseline. In data set [2] (Table 9, 0.05 weight %), the “48 h TEWL (x baseline)” value is 2.16 x baseline and the “72 h TEWL (x baseline)” value is 2.71 x baseline. For the same compound, the “barrier integrity / barrier permeability (TEWL) vs occlusion and TS controls, in words” value in data set [2] (intact pig skin) is on record as “comparable to or superior to both controls”.
As to `O[C@H]1[C@H](O)[C@@H](O)[C@@H]2O[C@@H]2[C@@H]1O` [conduritol-β-epoxide, Conduritol-β-epoxide], in data set [1] (frequently applied to intact skin), the “water permeability (TEWL), increase vs vehicle in words” value is “statistically significant increased lidocaine delivery and water permeability”. Also, the “TEWL (T = 4 hours)” value was 184 ± 39 in data set [1] (solitary agent, Conc 4.0 %, intact skin, TID, total 7-8 doses) and 253 ± 33 in data set [1] (solitary agent, Conc 4.0 %, single application, acetone-treated skin). Moreover, the “stratum corneum water permeability (TEWL), increase vs vehicle in words” value in data set [1] was “failing even nearly significantly to increase either water permeability or lidocaine delivery”.
As for `N[C@@H](CCl)C(=O)O` [β-chloroalanine, β-Chloroalanine], under setting [8], the “lidocaine delivery, increase” value is “significant increase”. For the same compound, in data set [4], the “recovery of barrier function, assessed as transepidermal water loss” value is “slow barrier recovery”. Moreover, the “TEWL (T = 4 hours)” value in data set [1] (setting [10]) is listed as 263 ± 35. The “stratum corneum water permeability (TEWL), increase vs vehicle in words” value in data set [1] is “did not increase stratum corneum water permeability”.
For the compound `CC(C)n1c(/C=C/C(O)CC(O)CC(=O)O)c(-c2ccc(F)cc2)c2ccccc21` (stereo not shown) [Fluindostatin], the “disruption of the stratum corneum barrier (both marker data sets)” value in data set [5] (PG and CP markers) is “caused significant disruption of the stratum corneum barrier”. The “cyclophenol (lipophilic marker) concentration profile in stratum corneum” value in data set [5] (tape-stripping repeated 7 times, vs vehicle control (FIG. 5A, 5B)) is “a lower, constant concentration level of CP”. Moreover, the “propylene glycol (hydrophilic marker) concentration profile in stratum corneum” value in data set [5] (topical pretreatment 7 days, IR spectra over 10 tape-strippings, vs vehicle control (FIG. 4A, 4B)) is “lower absolute levels of PG in the stratum corneum, and a constant concentration level of PG”. In data set [6], the “recovery of the barrier (TEWL) after oleic acid disruption” value is reported as “delay the recovery of the barrier”. Moreover, the “TEWL (T = 4 hours)” value in data set [1] (4 h) amounted to 431 ± 46. In addition, in data set [1], the “stratum corneum water permeability (TEWL), increase vs vehicle in words” value was “significantly increased it”.
For the compound “N-Palmitoyl-DL-dihydroxysphingosine [N-palmitoyl-DL-hydroxysphingosine]”, where the note is “mouse, in vivo”, the “Plasma Conc. (% dose/ml plasma)” value turned out to be 0.21 ± 0.03 % dose/ml plasma; the “Total Body Conc. (%)” value came out at 6.88 ± 0.69%; the “lidocaine delivery, increase” value is “significantly increased it”. In addition, the “TEWL (T = 4 hours)” value in data set [1] (setting [9]) is on record as 793 ± 124. Moreover, the “stratum corneum water permeability (TEWL), increase vs vehicle in words” value in data set [1] is “very significantly increased water permeability”.
As for `CC[C@H](C)C(=O)O[C@H]1C[C@@H](C)C=C2C=C[C@H](C)[C@H](CC[C@@H]3C[C@@H](O)CC(=O)O3)[C@H]21` [lovastatin, Lovastatin], the “recovery of barrier function, assessed as transepidermal water loss” value in data set [4] is reported as “impair the recovery of barrier function”.
In the case of `CCCCCCCC/C=C\CCCCCCCC(=O)NCCO` [N-oleoylethanolamine, N-Oleoylethanolamine], the “24 h TEWL (x baseline)” value turned out to be 1.46 x baseline in data set [2] (Table 9, 0.03 weight %, 24 h) and 1.67 x baseline in data set [2] (Table 9, 0.10 weight %, 24 h). The “48 h TEWL (x baseline)” value stood at 2.25 x baseline in data set [2] (Table 9, 0.03 weight %) and 2.45 x baseline in data set [2] (Table 9, 0.10 weight %). In addition, the “72 h TEWL (x baseline)” value in data set [2] (Table 9, 0.03 weight %) turned out to be 3.15 x baseline; in data set [2] (Table 9, 0.10 weight %), 3.68 x baseline. Moreover, the “barrier integrity / barrier permeability (TEWL) vs occlusion and TS controls, in words” value in data set [2] (intact pig skin) is “increases barrier permeability in a dose response manner”. In data set [1] (setting [9]), the “TEWL (T = 4 hours)” value is reported as 720 ± 229. Also, in data set [1], the “stratum corneum water permeability (TEWL), increase vs vehicle in words” value is “very significantly increased water permeability”.
As for Gramicidin D [GD], the “barrier integrity / barrier permeability (TEWL) vs occlusion and TS controls, in words” value in data set [2] (intact pig skin) is recorded as “increase barrier permeability to TS to a degree significantly superior to that provided by either control at all time points”.
Consider `CC[C@H](C)C(=O)O[C@H]1CCC=C2C=C[C@H](C)[C@H](CC[C@@H]3C[C@@H](O)CC(=O)O3)[C@H]21` [MEV, Mevastatin], for which the “24 h TEWL (x baseline)” value in data set [2] (Table 9, 0.08 weight %, 24 h after first administration) turned out to be 1.75 x baseline; in data set [2] (Table 9, 0.12 weight %, 24 h), 1.79 x baseline; in data set [2] (Table 10, 0.006 weight %, 24 h), 1.55 ± 0.29 x baseline; in data set [2] (Table 10, 0.10 weight %, 24 h), 1.93 ± 0.58 x baseline; in data set [2] (Table 10, 0.25 weight %, 24 h), 1.47 ± 0.18 x baseline. The “48 h TEWL (x baseline)” value in data set [2] (Table 9, 0.08 weight %) was 2.39 x baseline; in data set [2] (Table 9, 0.12 weight %), 2.75 x baseline; in data set [2] (Table 10, 0.006 weight %), 2.13 ± 0.38 x baseline; in data set [2] (Table 10, 0.10 weight %), 3.77 ± 1.42 x baseline; in data set [2] (Table 10, 0.25 weight %) it was 2.66 ± 1.00 x baseline. Moreover, the “72 h TEWL (x baseline)” value in data set [2] (Table 9, 0.08 weight %) came to 3.72 x baseline; in data set [2] (Table 9, 0.12 weight %), 3.72 x baseline; in data set [2] (Table 10, 0.006 weight %), 1.75 ± 0.21 x baseline; in data set [2] (Table 10, 0.10 weight %), 3.04 ± 0.86 x baseline; in data set [2] (Table 10, 0.25 weight %), 2.43 ± 0.51 x baseline. Besides, the “6 h Post TEWL (x baseline)” value in data set [2] (Table 10, 0.006 weight %) came out at 1.24 ± 0.29 x baseline; in data set [2] (Table 10, 0.10 weight %) it was 2.25 ± 0.8 x baseline; in data set [2] (Table 10, 0.25 weight %), 1.90 ± 0.28 x baseline. Also, the “barrier integrity / barrier permeability (TEWL) vs occlusion and TS controls, in words” value in data set [2] (intact pig skin) was “decreased barrier integrity to a substantial degree over that provided by either control”. The “capacity to deliver testosterone (TS) vs both controls, in words” value in data set [2] (intact pig skin, said to be shown in Table 11) is “superior capacity of MEV to deliver testosterone (TS) over that of both controls”.
For `CCCCCCCCCCCCCCOc1ccc(C(=O)O)o1` [TOFA, 5-tetradecyloxy-2-furancarboxylic acid], the “recovery of the barrier (TEWL) after oleic acid disruption” value in data set [6] is given as “delay the recovery of the barrier”. Further, the “TEWL (T = 4 hours)” value in data set [1] (setting [10]) was determined as 520 ± 31. Moreover, in data set [1], the “stratum corneum water permeability (TEWL), increase vs vehicle in words” value is listed as “very significantly increased water permeability”.
With `CC(C)CCC[C@@H](C)[C@H]1CC[C@H]2[C@@H]3CC=C4C[C@@H](OS(=O)(=O)O)CC[C@]4(C)[C@H]3CC[C@]12C` [cholesterol sulfate, Cholesterol sulfate], the “lidocaine delivery, increase” value under setting [8] is “statistically very significant increase in lidocaine delivery”. Also, the “TEWL (T = 4 hours)” value in data set [1] (setting [10]) amounted to 508 ± 169. The “stratum corneum water permeability (TEWL), increase vs vehicle in words” value in data set [1] is recorded as “significantly increased it”.
